# In patent US20100234362A1, “USE OF DIAZOXIDE FOR SUPPRESSING THE PLASMA INSULIN LEVEL IN A MAMMAL” (priority 2007, published 2010):
# Where two headings read alike, the source gives them in different places.
# Experiments:
# [1] = tested on: blood glucose and insulin levels; conditions: about 0.4 to about 0.8 mg/kg body weight before each meal; subjects with postprandial hyperglycemia and reactive hypoglycemia; cited from earlier work
# [2] = Plasma Diazoxide level by HPLC/UV; assay type: in vivo; conditions: male, human, at six months, mean daily dose 600±54 mg (5.7±0.5 mg/kg), oral, three times a day, read-out: plasma DZX level
# Source text: Diazoxide was taken at t−30.
# [3] = maximal 200 mg/day divided in three dosages, eight weeks, 24 hyperinsulinemic patients; placebo 5.0 kg; cited from earlier work
# plasma insulin levels = conditions: one week, cited from earlier work
# [4] = for Weight: 14 obese men after 6 months oral Diazoxide (mean 600±54 mg/day), mean ± SE, baseline 115.1 ± 3.4; for Waist circumference: baseline 116.9 ± 1.4
# Description: All subjects received were explained the physiological principle of this study. They also received dietary advice to reduce caloric intake to the calculated basal requirements for ideal body weight (based on the Harrison-Bennedict equation) and the instruction to increase walking exercise to at least 30 minutes a day. All subjects were allowed to do more physical exercise; the amount of daily physical exercise was not recorded. All subjects were instructed how to perform home glucose measurements (HGM). Blood samples were taken in the fasting state, (a) 2 hours after breakfast, just before lunch, (b) 2 hours after lunch, just before dinner, (c) 2 hours after dinner, at bedtime, and (d) at 3 am.
# Baseline measurements included body weight, body height, abdominal circumference, body composition by total body dual energy X-ray absorptiometry (DEXA), supine and upright blood pressure, HGM for two days and the assessment of serum glucose levels and serum insulin levels in response to a standarised test meal. […] Venous blood samples were taen through a venous line inserted into the forearm at −30, 0, 30, 45, 60, 90, 120, 180, 240 and 300 minutes.
# After completion of all baseline measurements, the subjects started Diazoxide 50 mg (three times a day) which was taken before each meal. Subsequently, the outpatient clinic was visited every month where the following data were recorded: body weight, abdominal circumference, supine and upright blood pressure, the results of a two-day, 8-point HGM performed in the week preceding the visit and adverse effects. Every visit, the daily Diazoxide dose was increased by 3×50 mg until a maximum of 300 mg (three times a day) was reached or until adverse side effects occurred. The Diazoxide dose was not increased if clinically relevant edema persisted for ore than a month, if upright systolic blood pressure was <110 mm Hg, if upright diastolic blood pressure was <70 mm Hg, or if fasting home glucose level was >7 nmol/l, or non-fasting home glucose level was >11 nmol/l.
# After six months of treatment, all measurements were repeated including the meal test. Diazoxide was taken at t−30. Blood samples taken during the meal test at t120 were also analysed for Diazoxide levels. […] The results of total body DEXA were expressed as kg lean body mass, fat mass and bone mass. Normal values for serum glucose levels and serum insuli levels during the test meal were obtained by performing this test in ten healthy, age-matched, non-obese men (BMI about 20 to about 25 kg/m^2).
# All data are shown as mean values±standard error (SE). The paired t-test was used to analyse the response to Diazoxide treatment, employing the Bonferoni correction for multiple comparisons. A p-value of less than 0.05 was considered to be statistically significant.
# [5] = 8-week weight-loss diet, hyperinsulinaemic obese subjects; cited from earlier work
# [6] = cited from earlier work
# [7] = tested on: plasma insulin and glucose levels; test: Standardised 500 kCal meal test before and after six months of Diazoxide: plasma glucose and insulin; assay type: in vivo, human; design: Whole Body Insulin Sensitivity: unit not given here
# [8] = literature clinical trials; cited from earlier work
# insulin secretion = conditions: at comparable dosages; cited from earlier work
# [9] = oral 300 mg per day divided in three dosages
# [10] = DEXA, 6 months vs baseline, P<0.001
# 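For change of LDL cholesterol in this document: obese men given oral Diazoxide before meals with dose raised monthly up to 300 mg three times daily, plus diet and walking advice, measured at baseline and after six months.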
# 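For change of systolic blood pressure in this document: obese men given oral Diazoxide before meals with dose raised monthly up to 300 mg three times daily, plus diet and walking advice, measured at baseline and after six months.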
# 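For decrease of diastolic blood pressure in this document: obese men given oral Diazoxide before meals with dose raised monthly up to 300 mg three times daily, plus diet and walking advice, measured at baseline and after six months.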
# 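For increase of adiponectin levels in this document: obese men given oral Diazoxide before meals with dose raised monthly up to 300 mg three times daily, plus diet and walking advice, measured at baseline and after six months.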
structure (smiles),measurement,setting,value
"CC1=NS(=O)(=O)c2cc(Cl)ccc2N1 [Diazoxide, 7-chloro-3-methyl-4H-1,2,4-benzothiadiazine 1,1-dioxide]",effect on blood glucose and insulin levels,[1],effective to normalize blood glucose and insulin levels
same,concentration at 150 min,[2],50000 ± 5800 ng/mL
same,weight loss,[3],9.8 kg
same,effect on fasting or postprandial glucose levels,plasma insulin levels; [9],without affecting fasting or postprandial glucose levels
same,reduction of plasma insulin levels,plasma insulin levels; [9],about 20%
same,effect on plasma glucose and insulin levels,plasma insulin levels; oral 150 and 225 mg per day divided in three dosages,no significant effect
same,change of LDL cholesterol,[4]; 6 months vs baseline,did not change significantly
same,change of systolic blood pressure,[4]; 6 months vs baseline,did not change
same,decrease of diastolic blood pressure,"[4]; 6 months vs baseline, 95% CI: 6.5-15.4 mm Hg, P<0.001",10.9±2.3 mm Hg
same,increase of adiponectin levels,"[4]; 6 months vs baseline, P<0.001",100±17%
same,increase of HbAlc,"[4]; 6 months vs baseline, P<0.02",0.5 % points
same,main dose limiting events,"[4]; 14 men, six months, 300 to 900 mg/day, other adverse effects not observed",Hyperglycaemia (n=4) and edema (n=8)
same,Weight,[4]; P<0.001,105.7 ± 3.5 kg
same,Weight,"[4]; P<0.001, listed as DZX",105.7 ± 3.8 kg
same,Bone Mass,"[4]; DEXA after 6 months Diazoxide, baseline 3.35 ± 0.14, NS",3.47 ± 0.11 kg
same,Fat Mass,"[4]; DEXA after 6 months Diazoxide, baseline 40.1 ± 1.8, P<0.001",30.7 ± 2.1 kg
same,Soft Tissue LBM,"[4]; DEXA after 6 months Diazoxide, baseline 70.2 ± 2.0, NS",70.6 ± 2.4 kg
same,change in soft tissue lean body mass or bone mass,"[4]; DEXA, 6 months vs baseline",without a concomitant change
same,change of total body fat mass,[4]; [10],−23.3%
same,decrease of total body fat mass,[4]; [10],9.5 ± 1.9 kg
same,plasma insulin level at which substantial loss of body fat (decrease of 10 kg or more) occurred,"[4]; FIG. 5, fasting insulin at 6 months, mean DZX dose in this subgroup 630±56 mg, about 30 pmol/L",below 4.5 mU/L
same,Urate,"[4]; after 6 months Diazoxide, baseline 0.37 ± 0.01, P<0.02",0.32 ± 0.02 mmol/L
same,HDL-Cholesterol,"[4]; after 6 months Diazoxide, baseline 1.12 ± 0.07, P<0.05",1.25 ± 0.09 mmol/L
same,Triglycerides,"[4]; after 6 months Diazoxide, baseline 2.17 ± 0.26, P<0.001",1.08 ± 0.13 mmol/L
same,LDL-Cholesterol,"[4]; after 6 months Diazoxide, baseline 3.19 ± 0.32, NS",2.97 ± 0.23 mmol/L
same,HbA1c,"[4]; after 6 months Diazoxide, baseline 5.4 ± 0.1, P<0.02",5.9 ± 0.2%
same,Adiponectin,"[4]; after 6 months Diazoxide, baseline 6.4 ± 0.5, P<0.001",12.5 ± 1.2 mg/L
same,BMI,"[4]; after 6 months Diazoxide, baseline 33.8 ± 0.5, P<0.001",31.0 ± 0.7 kg/m^2
same,Diastolic BP,"[4]; after 6 months Diazoxide, baseline 85.8 ± 2.1, P<0.001",74.9 ± 2.1 mmHg
same,Waist circumference,"[4]; after 6 months Diazoxide, P<0.001",107.7 ± 2.2 cm
same,Waist circumference,"[4]; after 6 months Diazoxide, P<0.001, listed as DZX",107.7±2.2 cm
same,Systolic BP,"[4]; after 6 months Diazoxide, baseline 128.8 ± 3.2, NS",128.8 ± 3.0 mmHg
same,Glucosuria in fasting morning urine samples,[4]; during six months of treatment,not observed
same,discontinuation because of side-effects,[4]; of eighteen obese men included,"two men stopped because of side-effects (rash and edema, respectively)"
same,mean weight loss,[4]; subgroup with weight loss between 5 and 10% (4/14 men),6.7±0.5%
same,mean weight loss,[4]; subgroup with weight loss less than 5% (5/14 men),3.1±0.8%
same,mean weight loss,[4]; subgroup with weight loss more than 10% (5/14 men),15.7±0.7%
same,effect on weight loss,[5],No effect
same,plasma level,"[6]; after six months, mean dosage about 585 mg/day",about 49 mg/l
same,body weight,"[6]; after six months, mean dosage about 585 mg/day, from about 114 kg",about 103 kg
same,tolerability of higher dosages,[6]; dose raised monthly from 150 to ultimately 900 mg/day,"generally not tolerated due to side effects, in particular hyperglycaemia and edema"
same,reduction of AUCIns,"[7]; 6 months vs baseline, P<0.001",63%
same,reduction of fasting insulin levels,"[7]; 6 months vs baseline, P<0.001",65%
same,reduction of post-meal insulin peak levels,"[7]; 6 months vs baseline, P<0.001",62%
same,increase of fasting glucose,"[7]; 6 months vs baseline, P<0.01",0.8 ± 0.3 mmol/L
same,rise of AUCGluc,"[7]; 6 months vs baseline, P<0.02",29%
same,increase of peak glucose,"[7]; 6 months vs baseline, P=0.06",1.4 ± 0.7 mmol/L
same,increase of whole body insulin sensitivity,"[7]; 6 months vs baseline, printed 95% CI: 60-145%, P<0.001",209%
same,Whole Body Insulin Sensitivity,"[7]; after 6 months Diazoxide, baseline 3.0 ± 0.3, P<0.001",8.8 ± 1.2
same,Fasting glucose,"[7]; after 6 months Diazoxide, baseline 5.5 ± 0.2, P<0.01",6.3 ± 0.3 mmol/L
same,Fasting Insulin,"[7]; after 6 months Diazoxide, baseline 18.0 ± 2.3, P<0.001",5.6 ± 0.7 mU/L
same,Peak glucose,"[7]; meal test after 6 months Diazoxide, baseline 8.4 ± 0.3, NS",9.8 ± 0.7 mmol/L
same,AUC insulin,"[7]; meal test after 6 months Diazoxide, baseline 16.6 ± 2.1, P<0.001",5.4 ± 0.4 mU · 10^−3/L · min
same,Peak Insulin,"[7]; meal test after 6 months Diazoxide, baseline 124 ± 17, P<0.001",35 ± 4 mU/L
CCCCCCCCCCC[C@@H](C[C@@H]1OC(=O)[C@H]1CCCCCC)OC(=O)[C@H](CC(C)C)NC=O [Orlistat],(placebo-subtracted) net weight loss,[8],~3 kg
CC(C)CC(N(C)C)C1(c2ccc(Cl)cc2)CCC1 (stereo not shown) [Sibutramine],(placebo-subtracted) net weight loss,[8],about 5 kg
Cc1c(C(=O)NN2CCCCC2)nn(-c2ccc(Cl)cc2Cl)c1-c1ccc(Cl)cc1 [Rimonabant],(placebo-subtracted) net weight loss,[8],about 6 kg
"CNC(=NS(=O)(=O)c1ccc(Cl)cc1)N1C[C@H](c2ccccc2)C(c2ccc(Cl)cc2)=N1 [Compound A, (4S)-3-(4-chlorophenyl)-N′-[(4-chlorophenyl)sulfonyl]-N-methyl-4-phenyl-4,5-dihydro-1-H-pyrazole-1-carboximidamide]",inhibiting insulin secretion compared with Diazoxide,insulin secretion,more effective than Diazoxide
